Reference: ChEMBL document CHEMBL1125524, “Adenosine A1 antagonists. 2. Structure-activity relationships on diuretic activities and protective effects against acute renal failure” (J Med Chem, 1992)
pKi: −log10 of the molar value.

Tests used:
[1] = test system: Rattus norvegicus; experiment: Urea nitrogen concentration measured after intraperitoneal administration of 1 mg/kg of compound to rats(vehicle 195.8+/-14.4); type: functional
[2] = test system: Rattus norvegicus; experiment: Serum creatinine concentration measured after intraperitoneal administration of 1 mg/kg of compound to rats(vehicle 5.07+/-0.33); type: functional
[3] = target: T1, Adenosine receptor A1 (Cavia porcellus, UniProt P47745)
T1 sequence (P47745 whole entry): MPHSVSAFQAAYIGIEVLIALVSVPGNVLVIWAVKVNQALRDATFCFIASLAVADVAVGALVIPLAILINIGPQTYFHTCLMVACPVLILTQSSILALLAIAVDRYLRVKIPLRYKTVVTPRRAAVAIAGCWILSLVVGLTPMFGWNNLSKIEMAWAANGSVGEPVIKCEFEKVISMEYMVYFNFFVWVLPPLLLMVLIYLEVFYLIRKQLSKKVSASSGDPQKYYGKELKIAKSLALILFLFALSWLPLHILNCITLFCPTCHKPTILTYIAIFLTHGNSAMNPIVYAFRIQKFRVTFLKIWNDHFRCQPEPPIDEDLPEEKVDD
Description: Binding affinity against adenosine A1 receptor in guinea pig forebrain membranes using N6-[3H]cyclohexyladenosine as radioligand

[4] = test system: Rattus norvegicus; experiment: Ratio of urinary excretion value (urinary volume) in treated rats to that in control rats, at a peroral dose of 25 mg/Kg; type: functional, Urine
[5] = target: Adenosine A2 receptor (Rattus norvegicus, UniProt P29276+P30543)
[6] = species on record: Rattus norvegicus; experiment: animal or person; details: ip, read-out: Inhibition, dose 1 mg/kg, route intraperitoneal
[7] = test system: Rattus norvegicus; experiment: Ratio of urinary excretion value (Na+ concentration) in treated rats to that in control rats, at a peroral dose of 25 mg/Kg; type: functional, Urine
[8] = test system: Rattus norvegicus; experiment: Oral diuretic activity was measured after oral administration of 25 mg/kg to rats(control volume is 0.94+/-0.04); type: functional, Urine
[9] = test system: Rattus norvegicus; experiment: Effect on urinary excretion potassium and sodium after oral administration of 25 mg/kg to rats(potassium and sodium excretion in control rat is 0.130+/-0.009); type: functional, Urine
[10] = test system: Rattus norvegicus; experiment: Percent inhibition of Urea nitrogen by the compound given as ratio of UN value in treated to vehicle treated ones after intraperitoneal administration of 1 mg/kg of compound to rats(vehicle 195.8+/-14.4); type: functional; details: Rattus norvegicus, ip
[11] = test system: Rattus norvegicus; experiment: Ratio of urinary excretion value (urinary volume) in treated rats to that in control rats, at a peroral dose of 1.6 mg/Kg; type: functional, Urine
[12] = test system: Rattus norvegicus; experiment: Ratio of urinary excretion value (urinary volume) in treated rats to that in control rats, at a peroral dose of 6.25 mg/Kg; type: functional, Urine
[13] = test system: Rattus norvegicus; experiment: Oral diuretic activity was measured after oral administration of 25 mg/kg to rats(control volume is 0.80+/-0.04); type: functional, Urine
[14] = test system: Rattus norvegicus; experiment: Ratio of urinary excretion value (Na+ concentration) in treated rats to that in control rats, at a peroral dose of 1.6 mg/Kg; type: functional, Urine
[15] = test system: Rattus norvegicus; experiment: Ratio of urinary excretion value (Na+ concentration) in treated rats to that in control rats, at a peroral dose of 6.25 mg/Kg; type: functional, Urine
[16] = test system: Rattus norvegicus; experiment: Ratio of sodium ion/potassium ion concentration in treated rats to that in control rats, at a peroral dose of 25 mg/Kg; type: functional
[17] = test system: Rattus norvegicus; experiment: Serum creatinine concentration measured after intraperitoneal administration of 10 mg/kg of compound to rats(vehicle 3.94+/-0.24); type: functional
[18] = test system: Rattus norvegicus; experiment: Percent inhibition of Urea nitrogen by the compound given as ratio of UN value in treated to vehicle treated ones after intraperitoneal administration of 1 mg/kg of compound to rats(vehicle 178+/-11.3); type: functional; details: ip
[19] = test system: Rattus norvegicus; experiment: Percent inhibition of Urea nitrogen by the compound given as ratio of UN value in treated to vehicle treated ones fter intraperitoneal administration of 10 mg/kg of compound to rats(vehicle 141.3+/-6.6); type: functional; details: ip
[20] = test system: Rattus norvegicus; experiment: Percent inhibition of serum creatinine by the compound given as ratio of Cr value in treated to vehicle treated ones after intraperitoneal administration of 1 mg/kg of compound to rats(vehicle 3.86+/-0.27); type: functional; details: ip
[21] = test system: Rattus norvegicus; experiment: Percent inhibition of serum creatinine by the compound given as ratio of Cr value in treated to vehicle treated ones fter intraperitoneal administration of 10 mg/kg of compound to rats(vehicle 3.94+/-0.24); type: functional; details: ip
[22] = test system: Rattus norvegicus; experiment: Oral diuretic activity was measured after oral administration of 1.6 mg/kg to rats(control volume is […]+/-[…]); type: functional, Urine
[23] = test system: Rattus norvegicus; experiment: Urea nitrogen concentration measured after intraperitoneal administration of 1 mg/kg of compound to rats(vehicle 178+/-11.3); type: functional
[24] = test system: Rattus norvegicus; experiment: Urea nitrogen concentration measured after intraperitoneal administration of 10 mg/kg of compound to rats(vehicle 141.3+/-6.6); type: functional
[25] = test system: Rattus norvegicus; experiment: Effect on urinary excretion potassium and sodium after oral administration of 1.6 mg/kg to rats(potassium and sodium excretion in control rat is 0.261+/-0.008); type: functional, Urine
[26] = test system: Rattus norvegicus; experiment: Ratio of sodium ion/potassium ion concentration in treated rats to that in control rats, at a peroral dose of 1.6 mg/Kg; type: functional
[27] = test system: Rattus norvegicus; experiment: Effect on urinary excretion potassium and sodium after oral administration of 25 mg/kg to rats(potassium and sodium excretion in control rat is 0.134+/-0.004); type: functional, Urine
[28] = test system: Rattus norvegicus; experiment: Serum creatinine concentration measured after intraperitoneal administration of 1 mg/kg of compound to rats(vehicle 3.86+/-0.27); type: functional

SMILES: CCCn1c(=O)c2nc(C3CC4C=CC3C4)[nH]c2n(CCC)c1=O (stereo in doubt; 18)
- UN [1]: 92.7 mg/dL
- Cr [2]: 2.23 mg/dL
- pKi [3]: 8.47
- T/C [4]: 1.87
- Ki [5]: 210 nM
- inhibition in vivo at 1 mg/kg [6]: 56%
- T/C [7]: 2.09
- Urine volume [8]: 1.75 ml 6hr-1 100g-1
- Na [9]: 0.271 m equiv 6hr-1 100g-1
- inhibition in vivo at 1 mg/kg [10]: 53%

SMILES: Cn1c(=O)c2nc(-c3ccccc3)[nH]c2n(C)c1=O [8-PHENYL THEOPHYLLINE]
- T/C [11]: 0.63
- T/C [12]: 1.79
- Urine volume [13]: 1.1 ml 6hr-1 100g-1
- pKi [3]: 5.80
- T/C [14]: 0.87
- T/C [15]: 1.54
- T/C [4]: 1.38
- Na+/K+ [16]: 1.39
- Cr [17]: 1.74 mg/dL
- inhibition in vivo at 1 mg/kg [18]: 17%
- Ki [5]: 2300 nM
- inhibition in vivo at 10 mg/kg [19]: 56%
- T/C [7]: 1.39
- inhibition in vivo at 1 mg/kg [20]: 19%
- inhibition in vivo at 10 mg/kg [21]: 56%
- Urine volume [22]: 0.88 ml 6hr-1 100g-1
- UN [23]: 148.3 mg/dL
- UN [24]: 62.4 mg/dL
- Na [25]: 0.175 m equiv 6hr-1 100g-1
- Na+/K+ [26]: 0.87
- Na [27]: 0.201 m equiv 6hr-1 100g-1
- Cr [28]: 3.14 mg/dL
